Measured values taken from the NIST ThermoML archive (doi:10.1016/j.jct.2017.12.017).
Values joined by “and” are separate entries in the source; they are usually repeats but may differ in a detail not shown here. Identical values can stand only once. ± gives the expanded uncertainty stated by the source.

Test: mn = molality of the nth substance listed, in mol/kg
Conditions: 100 kPa, Liquid; for speed of sound: Frequency=3 MHz, Single path-length method; for mass density: Vibrating tube method

Nc1ccc(S(=O)(=O)Nc2nccs2)cc1 [N-(2-thiazolyl)sulfanilamide] + O
Conditions	mass density, 288.15 K	mass density, 293.15 K	mass density, 298.15 K	mass density, 303.15 K	mass density, 308.15 K	speed of sound, 288.15 K [m/s]	speed of sound, 293.15 K [m/s]	speed of sound, 298.15 K [m/s]	speed of sound, 303.15 K [m/s]	speed of sound, 308.15 K [m/s]
m1 = 0.001	999.21 ± 0.49 kg/m3	998.28 ± 0.49 kg/m3	997.13 ± 0.49 kg/m3	995.71 ± 0.49 kg/m3	994.08 ± 0.49 kg/m3	1466.6 ± 1.8	1482.9 ± 1.9	1497.1 ± 1.9	1509.6 ± 1.9	1520.2 ± 1.9
m1 = 0.005	999.71 ± 0.49 kg/m3	998.79 ± 0.49 kg/m3	997.61 ± 0.49 kg/m3	996.18 ± 0.49 kg/m3	994.54 ± 0.49 kg/m3	1467.2 ± 1.8	1483.5 ± 1.9	1497.7 ± 1.9	1510 ± 1.9	1520.6 ± 1.9
m1 = 0.01	1000.27 ± 0.49 kg/m3 and 1000.33 ± 0.49 kg/m3	999.36 ± 0.5 kg/m3 and 999.41 ± 0.49 kg/m3	998.19 ± 0.5 kg/m3 and 998.23 ± 0.49 kg/m3	996.81 ± 0.49 kg/m3 and 996.77 ± 0.49 kg/m3	995.18 ± 0.49 kg/m3 and 995.14 ± 0.49 kg/m3	1468.5 ± 1.9	1484.5 ± 1.9	1498.7 ± 1.9	1510.7 ± 1.9	1521.7 ± 1.9
